Results: patent US5053336A, “Monoclonal antibodies for the separate detection of halodeoxyuridines and method for their use” (Regents of the University of California, priority 1989, dated 1991)

Test system: monoclonal antibody Br-3 (IgG1, kappa; hybridoma ATCC deposit)
Test: competition ELISA (c-ELISA), specificity of antibody for halogenated deoxyuridines
Assay type: binding, mouse (SJL/Jax)
Description: A competition enzyme-linked immunosorbent assay (c-ELISA) wa developed to assess the specificity of the antibody for halogenated deoxyuridines by the method of Stanker, et al. (1986) described previously. The competition ELISA data was normalized using 100% activity as the optical density in wells in which antibody was bound to the solid phase antigen (BSA-hapten) in the absence of any competitor. The test wells, each containing different amounts of competitor, were normalized to the 100% activity wells. Percent inhibition was calculated by subtracting the normalized percent binding activity from 100. A smaller I50 value indicates a higher relative affinity of the antibody for the compound. I50 values were estimated graphically from competition ELISA data. When 50% inhibition could not be attained, the value of the highest level of competitor tested is reported. Competition binding data for antibodies reactive with brominated nucleoside analogs are shown in FIG. 1, and the values represent the averages from at least 12 independent assays.
The concentration of IdUMP which causes a 50% binding inhibition to monoclonal antibody Br-3 is 100 times greater for IdUMP than with BrdUMP.

In the case of `O=c1[nH]c(=O)n([C@H]2C[C@H](O)[C@@H](COP(=O)(O)O)O2)cc1I` [IdUMP, 5-iodo-2'-deoxyuridine-5-monophosphate], the “concentration which causes a 50% binding inhibition (I50), relative to BrdUMP” value (I50 of IdUMP compared with I50 of BrdUMP, FIG. 1, averages of at least 12 assays) is reported as 100 times.

In the case of `Cc1cn([C@H]2C[C@H](O)[C@@H](COP(=O)(O)O)O2)c(=O)[nH]c1=O` [dTMP, deoxythymidine-5-monophosphate], the IC50 (50% inhibition not attained at the highest level of competitor tested, read-out: concentration for 50% binding inhibition (I50)) is reported as > 100 µM.

`O=c1[nH]c(=O)n([C@H]2C[C@H](O)[C@@H](COP(=O)(O)O)O2)cc1F` [fluorinated deoxyuridine analog, 5-fluoro-2'-deoxyuridine-5-monophosphate] was tested, and the “Br-3 binding (competition ELISA)” value (compared with the iodinated analog, FIG. 1) was “comparable to that of the iodinated analog”.
